Common to all, as to assay: cells
Assay [1] relates to endothelial tube formation in co-cultures of ECFCs and ADSCs treated with VEGF. Type of assay: cell-based, human.
The subject of another assay is SW480. The format is cell-based.
The subject of a further assay is HCT116. The format is cell-based.
A further assay relates to NCI-H716 cells. The format is cell-based, Human.
Assay [2] relates to nuclear β-catenin in C2C12 cells. The format is cell-based.
For a further assay, the system named is HeLa cells. Type of assay: cell-based. As to conditions: for EC50: read-out: CellCycle G2/M.
The next assay deals with INS-1E cells. Type of assay: cell-based, rat.
Assay [3] has as its system HCT116 cells treated with a GSK3β inhibitor. Type of assay: cell-based.
Another assay deals with DLD-1. The format is cell-based.
The next assay concerns SNU-C1. Type of assay: cell-based. The note with it: Homo sapiens, SNU-C1, 72 h, Table 2; 72 h, Cell TiterGlo, non-adherent; 20 coded; read-out: SNU-C1 viab. IC50.
For another assay, the system named is Colo320. Type of assay: cell-based. As to conditions: Homo sapiens, COLO 320; read-out: Basal_Viability ATP Colo 320.
The subject of a further assay is RKO. The format is cell-based. The note with it: Homo sapiens, RKO; read-out: Basal_Viability ATP RKO.
Setting [4] is: Homo sapiens; read-out: Anti-Angiogenesis.
Setting [5] is: Homo sapiens, SW480, basal; SW480; read-out: Basal_Viability ATP SW480.
The mark [6] stands for this setting: Homo sapiens, HCT-116, basal, HCT116, read-out: Basal_Viability ATP HCT116.
Where [7] appears, read: Homo sapiens, NCI-H716; read-out: GLP 1 Secretion.
Where [8] appears, read: Mus musculus, C2C12, S2 Table; module primary assay; 20 / 20.1 codes per legend; read-out: Wnt Pathway.
Where [9] appears, read: Homo sapiens, HeLa, S2 Table, HeLa, 20 = no response at highest concentration.
[10] abbreviates: Rattus norvegicus, INS-1E; read-out: Insulin Secretion.
Setting [11] is: Homo sapiens, HCT-116, HCT116 pretreated with GSK3b inhibitor, read-out: GSK3b inh pretreated_Viability ATP HCT116.
[12] abbreviates: Homo sapiens, DLD-1, basal; DLD-1; read-out: Basal_Viability ATP DLD-1.
The mark [13] stands for this setting: Homo sapiens, read-out: Anti-Angiogenesis.
Setting [14] is: Homo sapiens; read-out: Anti-Angio IC50.
Where [15] appears, read: Homo sapiens, NCI-H716; read-out: GLP1 sec. EC50.
[16] abbreviates: Mus musculus, C2C12; read-out: Wnt Pathway.
Where [17] appears, read: Rattus norvegicus, INS-1E; read-out: Ins. sec. EC50.
The mark [18] stands for this setting: Homo sapiens, DLD-1, 72 h, Table 2; 72 h, Cell TiterGlo, non-adherent; 20 coded; read-out: DLD-1 viab. IC50.
Where [19] appears, read: Homo sapiens, IC50 / EC50; endothelial tube area, ADSC/ECFC co-culture; read-out: Anti-Angiogenesis.
Setting [20] is: Homo sapiens; IC50 / EC50; NCI-H716; read-out: GLP 1 Secretion.
The mark [21] stands for this setting: Rattus norvegicus; IC50 / EC50; INS-1E; read-out: Insulin Secretion.
Setting [22] is: Homo sapiens, HCT-116, GSK3b inhibitor pretreated, read-out: GSK3b inh pretreated_Viability ATP HCT116.
Where [23] appears, read: Homo sapiens, SW480, 72 h, Table 2; 72 h, Cell TiterGlo, non-adherent; 20 coded; read-out: SW480 viab. IC50.
The mark [24] stands for this setting: Homo sapiens, HCT-116, 72 h, read-out: HCT-116 viab. IC50, Table 2, basal, 72 h, Cell TiterGlo, non-adherent, 20 coded.
Setting [25] is: Mus musculus, C2C12, Table 2; C2C12; […]; 20 / 20.1 coded; read-out: Wnt pot. EC50.
[26] abbreviates: Homo sapiens, SW480, basal; read-out: Basal_Viability ATP SW480.
The mark [27] stands for this setting: Homo sapiens, HCT-116, basal, read-out: Basal_Viability ATP HCT116.
The mark [28] stands for this setting: Homo sapiens, HeLa, IC50 / EC50, HeLa.
[29] abbreviates: Homo sapiens, DLD-1, basal; read-out: Basal_Viability ATP DLD-1.
Setting [30] is: Homo sapiens, HCT-116, read-out: HCT-116 (GSK3β) viab. IC50, Table 2, GSK3β inhibitor LY2090314 20 nM, 72 h, Cell TiterGlo, 20 coded.

SMILES strings stand for the structures. Like-named read-outs stand apart in the source and are kept apart here.

For `O=c1[nH]c(=O)n([C@H]2C[C@H](O)[C@@H](CO)O2)cc1I` [idoxuridine], the IC50 is 681 nM in assay [1] (setting [4]); over 20 µM in the assay on SW480 (setting [5]); over 20000 nM in the assay on HCT116 (setting [6]); over 20 µM in assay [3] (setting [11]); over 20000 nM in the assay on DLD-1 (setting [12]). In addition, the EC50 (in the assay on NCI-H716 cells (setting [7]); in [2] (setting [8]); in the assay on HeLa cells (setting [9]); in the assay with INS-1E cells (setting [10])) was over 10 µM each time.
Consider `CC[C@H](C)C(=O)O[C@H]1C[C@@H](C)C=C2C=C[C@H](C)[C@H](CC[C@@H]3C[C@@H](O)CC(=O)O3)[C@H]21` [lovastatin, reference compound], for which the IC50 in assay [1] (setting [13]) came out at 3270 nM; in the assay on SW480 (Homo sapiens, SW480, read-out: Basal_Viability ATP SW480) it was 4.73 µM; in the assay with HCT116 (Homo sapiens, HCT-116, read-out: Basal_Viability ATP HCT116), 1750 nM; in assay [3] (Homo sapiens, HCT-116, read-out: GSK3b inh pretreated_Viability ATP HCT116) it was 7.36 µM; in the assay with DLD-1 (Homo sapiens, DLD-1, read-out: Basal_Viability ATP DLD-1), 19200 nM. Moreover, the EC50 with NCI-H716 cells (Homo sapiens, NCI-H716, read-out: GLP 1 Secretion) is over 20 µM; in assay [2] (Mus musculus, C2C12, read-out: Wnt Pathway), over 10 µM; in the assay with HeLa cells (Homo sapiens, HeLa) it was over 10 µM; with INS-1E cells (Rattus norvegicus, INS-1E, read-out: Insulin Secretion), over 10 µM.
Regarding `CN(Cc1cnc2nc(N)nc(N)c2n1)c1ccc(C(=O)N[C@@H](CCC(=O)O)C(=O)O)cc1` [methotrexate, reference compound], the IC50 in assay [1] (setting [14]) is over 10000 nM; with SNU-C1 it was over 20 µM; in the assay with DLD-1 (setting [18]), 700 nM; in the assay on DLD-1 (setting [12]) it was 704 nM. The EC50 was over 10 µM in the assay with NCI-H716 cells (setting [15]); 0.0116 µM in [2] (setting [16]); 0.012 µM in assay [2] (Mus musculus, C2C12; read-out: Wnt pot. EC50); over 10 µM with HeLa cells (setting [9]); over 10 µM in the assay with INS-1E cells (setting [17]).
As for `COc1cccc2c1C(=O)c1c(O)c3c(c(O)c1C2=O)C[C@@](O)(C(=O)CO)C[C@@H]3O[C@H]1C[C@H](N2CCO[C@H](OC)C2)[C@H](O)[C@H](C)O1` [nemorubicin], the IC50 in assay [1] (setting [19]) stood at 3 nM; with Colo320 it was 1 nM; in the assay on SW480 (Homo sapiens, SW480; read-out: Basal_Viability ATP SW480), 0.001 µM; in assay [3] (setting [22]), 0.001 µM; with DLD-1 (Homo sapiens, DLD-1; read-out: Basal_Viability ATP DLD-1) it was 1 nM; in the assay with RKO, 1 nM. For the same compound, the EC50 was over 10 µM in the assay on NCI-H716 cells (setting [20]); 0.0135 µM in [2] (Mus musculus; IC50 / EC50; C2C12 beta-catenin translocation; read-out: Wnt Pathway); over 10 µM in the assay with HeLa cells (Homo sapiens, IC50 / EC50, HeLa); over 10 µM with INS-1E cells (setting [21]).
Take `CC(=O)Oc1ccccc1C(=O)Nc1ncc([N+](=O)[O-])s1` [nitazoxanide]: the IC50 was determined as 2060 nM in assay [1] (setting [4]); 3.03 µM in the assay on SW480 (setting [5]); 2810 nM in the assay with HCT116 (setting [6]); 2.46 µM in assay [3] (setting [11]); 3090 nM in the assay on DLD-1 (setting [12]). The EC50 (in the assay on NCI-H716 cells (setting [7]); in [2] (setting [8]); with HeLa cells (setting [9]); with INS-1E cells (setting [10])) was over 10 µM in each case.
Turning to `CCCCc1ccc2[nH]c(NC(=O)OC)nc2c1` [parbendazole], the IC50 is 53 nM in [1] (setting [4]); 1.99 µM with SW480 (setting [5]); 118 nM in the assay on HCT116 (setting [6]); 0.105 µM in [3] (setting [11]); 640 nM in the assay with DLD-1 (setting [12]). Besides, the EC50 is over 10 µM in the assay with NCI-H716 cells (setting [7]), 0.0336 µM in [2] (setting [16]), 0.0106 µM with HeLa cells (setting [9]) and over 10 µM in the assay on INS-1E cells (setting [10]).
`Cc1ccc(Nc2nccc(N(C)c3ccc4c(C)n(C)nc4c3)n2)cc1S(N)(=O)=O` [pazopanib, reference compound]: the IC50 in assay [1] (setting [14]) is 47 nM; in [1] (setting [4]), 46.5 nM; in the assay on SW480 (setting [23]), 5.7 µM; with SW480 (setting [5]), 5.68 µM; in the assay with HCT116 (setting [24]), over 20000 nM; in assay [3] (Homo sapiens, HCT-116, 72 h, read-out: HCT-116 (GSK3β) viab. IC50), over 20 µM. The IC50 in the assay with DLD-1 (setting [18]) was over 20000 nM. Besides, the EC50 (in the assay on NCI-H716 cells (setting [15]); in assay [2] (setting [25]); in the assay with HeLa cells (setting [9]); in the assay with INS-1E cells (setting [17])) was over 10 µM throughout. Besides, the “activity in the Wnt potentiation module (in words)” value in assay [2] was “None of these agents, however, possessed appreciable activity”.
Turning to `NCCNc1ccc(NCCN)c2c1C(=O)c1ccncc1C2=O` [pixantrone], the IC50 in assay [1] (setting [19]) is 46.5 nM; in the assay with SW480 (setting [26]), over 20 µM; in the assay with HCT116 (setting [27]), over 20000 nM; in [3] (setting [22]), 14.6 µM; in the assay on DLD-1 (setting [29]), over 20000 nM. In addition, the EC50 in the assay with NCI-H716 cells (setting [20]) was over 10 µM; in assay [2] (Mus musculus, C2C12, IC50 / EC50; C2C12 beta-catenin translocation; read-out: Wnt Pathway), over 10 µM; with HeLa cells (setting [28]) it was 0.0483 µM; in the assay on INS-1E cells (setting [21]), over 10 µM.
Consider `CC(C)=CCC/C(C)=C/CC/C(C)=C/C(=O)OCC(=O)[C@@]1(O)CC[C@H]2[C@@H]3CCC4=CC(=O)C=C[C@]4(C)[C@H]3[C@@H](O)C[C@@]21C` [prednisolone farnesil], for which the IC50 in assay [1] (read-out: Anti-Angiogenesis) was found to be 3340 nM; in the assay on SW480 (read-out: Basal_Viability ATP SW480), 8.11 µM; with HCT116 (read-out: Basal_Viability ATP HCT116) it was 5740 nM; in [3] (read-out: GSK3b inh pretreated_Viability ATP HCT116) it was 7.19 µM; with DLD-1 (read-out: Basal_Viability ATP DLD-1) it was 7930 nM. Moreover, the EC50 (in the assay with NCI-H716 cells (read-out: GLP 1 Secretion); in assay [2] (read-out: Wnt Pathway); in the assay with HeLa cells; with INS-1E cells (read-out: Insulin Secretion)) was over 10 µM throughout.
On to `CCN(CC)CCNC(=O)c1c(C)[nH]c(/C=C2\C(=O)Nc3ccc(F)cc32)c1C` [sunitinib, reference compound], for which the IC50 came out at 25 nM in assay [1] (Homo sapiens, read-out: Anti-Angio IC50); 25.4 nM in assay [1] (setting [13]); 2.8 µM with SW480 (setting [23]); 2.76 µM in the assay with SW480 (setting [26]); 2300 nM with HCT116 (setting [24]); 2310 nM in the assay with HCT116 (setting [27]). The IC50 in assay [3] (setting [30]) was found to be 0.36 µM; in assay [3] (setting [22]) it was 0.361 µM; in the assay with DLD-1 (setting [18]), 1600 nM; with DLD-1 (setting [29]), 1630 nM. Further, the EC50 with NCI-H716 cells (setting [15]) was over 10 µM; in assay [2] (setting [25]), over 10 µM; in the assay with HeLa cells (setting [28]), over 10 µM; with INS-1E cells (setting [17]), over 20 µM.
Take `Clc1ccc(Nc2nnc(Cc3ccncc3)c3ccccc23)cc1` [vatalanib, reference compound]: the IC50 was 110 nM in [1] (setting [14]); 111 nM in assay [1] (setting [4]); 19.5 µM in the assay with SW480 (setting [23]); 19.5 µM in the assay on SW480 (setting [5]); over 20000 nM in the assay on HCT116 (setting [24]); 10.5 µM in [3] (setting [30]). Besides, the results for the IC50 (in [3] (setting [11]); in the assay with DLD-1 (setting [18])) were 10.5 µM and over 20000 nM, respectively. The EC50 (with NCI-H716 cells (setting [15]); in assay [2] (setting [25]); with HeLa cells (setting [9]); in the assay with INS-1E cells (setting [17])) was over 10 µM each time. In [2], the “activity in the Wnt potentiation module (in words)” value is recorded as “None of these agents, however, possessed appreciable activity”. For the same compound, the “G2/M IC50 / EC50” value in the assay with HeLa cells is 20 (values shown as 20 indicate that the compound was tested in concentration-response and showed no response at the highest concentration tested (e.g. IC50 > 20 μM)).
